# Legend:
# [1] = Solubility (qualitative); details: water, alcohols, acetone
# [2] = system: Rhyzoctonia violaceae; experiment: Inhibition of phytopathogenic fungi growth, laboratory test on potato-dextrose agar; assay type: cell-based; details: active principle 0.01 % by mass in potato-dextrose agar
# Method: (§1) A fungicidal composition based on this compound was prepared in the form of a 0.01% solution thereof in distilled water. A fungicidal action of the composition, according to the invention, was tested for inhibition of vegetative fungi growth such as Fusarium moniliforme, Ventura inaequalis, Rhyzoctonia ciolaceae, Botrytis cinereae, Verticillium albo-atrum, Diplodia zeae, Fusarium oxysporum, Rhoma betae, Rhyzoctonia aderholdii, Aspergillus niger, Alternaria sobani, Botrytis allii, Aspergillus fumigatis, Fusarium culmorum, Penicillium cyclopium affecting potato, sugar beet, cotton seeds either in laboratory or field conditions. For testing it to the Petri dishes containing potato-dextrose agar the composition of the invention was.added at the concentration of an active principle of 0.01 % by mass. The Petri dishes containing the same agar culture were inoculated with a mycelium of phytopathogenic fungi. For control dishes the phytopathogenic fungi were inoculated on agar without using the composition of the invention. A fungicidal effect of the composition, according to the invention was tested in comparison with the known fungicidal compositions based on 2,3-dichloro-1,4-naphthoquinone, zinc N,N'-ethylene-bis-dithiocarbamate and tetramethylthiuram disulphide.
# [3] = system: Verticillium albo-atrum; experiment: as above; assay type: cell-based; details: active principle 0.01 % by mass in potato-dextrose agar
# Method: as §1
# [4] = system: Fusarium oxysporum; experiment: as above; assay type: cell-based; details: active principle 0.01 % by mass in potato-dextrose agar
# Method: as §1
# [5] = system: Aspergillus fumigatis; experiment: as above; assay type: cell-based; details: active principle 0.01 % by mass in potato-dextrose agar
# Method: as §1
# [6] = system: Rhyzoctonia aderholdii; experiment: as above; assay type: cell-based; details: active principle 0.01 % by mass in potato-dextrose agar
# Method: as §1
# [7] = system: Botrytis cinereae; experiment: as above; assay type: cell-based; details: active principle 0.01 % by mass in potato-dextrose agar
# Method: as §1
# [8] = system: Diplodia zeae; experiment: as above; assay type: cell-based; details: active principle 0.01 % by mass in potato-dextrose agar
# Method: as §1
# [9] = system: Venturia inaequalis; experiment: as above; assay type: cell-based; details: active principle 0.01 % by mass in potato-dextrose agar
# Method: as §1
# [10] = system: Alternaria sobani; experiment: as above; assay type: cell-based; details: active principle 0.01 % by mass in potato-dextrose agar
# Method: as §1
# [11] = system: Fusarium moniliforme; experiment: as above; assay type: cell-based; details: active principle 0.01 % by mass in potato-dextrose agar
# Method: as §1
# [12] = system: Aspergillus niger; experiment: as above; assay type: cell-based; details: active principle 0.01 % by mass in potato-dextrose agar
# Method: as §1
# [13] = system: Rhoma betae; experiment: as above; assay type: cell-based; details: active principle 0.01 % by mass in potato-dextrose agar
# Method: as §1
# [14] = system: Penicillium cyclopium; experiment: as above; assay type: cell-based; details: active principle 0.01 % by mass in potato-dextrose agar
# Method: as §1
# [15] = system: Botrytis allii; experiment: as above; assay type: cell-based; details: active principle 0.01 % by mass in potato-dextrose agar
# Method: as §1
# [16] = system: Fusarium culmorum; experiment: as above; assay type: cell-based; details: active principle 0.01 % by mass in potato-dextrose agar
# Method: as §1
# [17] = system: Rhyzoctonia violaceae; experiment: Inhibition of phytopathogenic fungi, field test on affected potato plants; assay type: in vivo; details: 5 m^2 plots of affected potato plants sprayed
# Description: (§2) For field tests the plots of 5 m^2 in size with potato plants affected by Fusarium moniliforme, Venturia inaequalis, Rhyzoctonia violaceae, Botrytis cinereae, Verticillium albo-atrum, Diplodia zeae, Fusarium oxysporum, Rhoma betae, Rhyzoctonia aderholdii, Aspergillus niger, Alternaria sobani, Botrytis allii, Aspergillus fumigatis, Fusarium culmorum, Penicillium cyclopium were sprayed with the fungicide of the invention. To compare, the similar plots of the affected potato plants were aprayed with the known compositions indicated above.
# [18] = system: Verticillium albo-atrum; experiment: as above; assay type: in vivo; details: 5 m^2 plots of affected potato plants sprayed
# Description: as §2
# [19] = system: Fusarium oxysporum; experiment: as above; assay type: in vivo; details: 5 m^2 plots of affected potato plants sprayed
# Description: as §2
# [20] = system: Aspergillus fumigatis; experiment: as above; assay type: in vivo; details: 5 m^2 plots of affected potato plants sprayed
# Description: as §2
# [21] = system: Rhyzoctonia aderholdii; experiment: as above; assay type: in vivo; details: 5 m^2 plots of affected potato plants sprayed
# Description: as §2
# [22] = system: Botrytis cinereae; experiment: as above; assay type: in vivo; details: 5 m^2 plots of affected potato plants sprayed
# Description: as §2
# [23] = system: Diplodia zeae; experiment: as above; assay type: in vivo; details: 5 m^2 plots of affected potato plants sprayed
# Description: as §2
# [24] = system: Venturia inaequalis; experiment: as above; assay type: in vivo; details: 5 m^2 plots of affected potato plants sprayed
# Description: as §2
# [25] = system: Alternaria sobani; experiment: as above; assay type: in vivo; details: 5 m^2 plots of affected potato plants sprayed
# Description: as §2
# [26] = system: Fusarium moniliforme; experiment: as above; assay type: in vivo; details: 5 m^2 plots of affected potato plants sprayed
# Description: as §2
# [27] = system: Aspergillus niger; experiment: as above; assay type: in vivo; details: 5 m^2 plots of affected potato plants sprayed
# Description: as §2
# [28] = system: Rhoma betae; experiment: as above; assay type: in vivo; details: 5 m^2 plots of affected potato plants sprayed
# Description: as §2
# [29] = system: Penicillium cyclopium; experiment: as above; assay type: in vivo; details: 5 m^2 plots of affected potato plants sprayed
# Description: as §2
# [30] = system: Botrytis allii; experiment: as above; assay type: in vivo; details: 5 m^2 plots of affected potato plants sprayed
# Description: as §2
# [31] = system: Fusarium culmorum; experiment: as above; assay type: in vivo; details: 5 m^2 plots of affected potato plants sprayed
# Description: as §2
# [32] = system: gall nematodes; experiment: Nematocidal effect, field test on affected tomato plants; assay type: in vivo; details: 5 m^2 plots of tomato plants affected by nematodes
# Method: In the field conditions, the plots of 5 m^2 in size of tomato plants affected by nematodes were treated with the claimed nematocidal compositions and the known nematocides.
# [33] = system: leaves of tomato and cucumber; experiment: Phytotoxic effect on leaves; assay type: in vivo; details: nematocidal composition, 1% solution in distilled water
# [34] = system: invasion larvae of gall nematodes; experiment: Nematocidal effect on invasion larvae, experimental (object glass) test; assay type: in vivo; details: 1% solution in distilled water; 100 invasion larvae; 24 hours
# Method: A nematocidal effect of the composition, according to the invention, was tested on invasion larvae of gall nematodes. To this end, 1 droplet of a suspension containing 100 invasion larvae of gall nematodes was placed onto the object glasses with cells. 1 droplet of the composition of the invention was added thereinto. 1 drop of distilled water was added to the control cell instead of the composition, according to the invention. The glasses with test and control cells were placed onto Petri dish with a moisten ashless filter, and 24 hours later the killed nematodes were recorded. The tests were 3-fold repeated. The study of a nematocidal activity was conducted in comparison with a known nematocidal composition based on 0,0-dimethyl-0-/2-(N,N'-diethylcarbamoyl)-1-methyl-2-chlorovinyl/ /phosphate.
smiles,measurement,setting,value
"O=C(NP(=O)(Nc1ccc(Cl)cc1[N+](=O)[O-])Nc1ccc(Cl)cc1[N+](=O)[O-])c1ccc(Br)cc1 [Example 16, para-bromobenzoylamidophosphoric acid di-para-chloro-ortho--nitroanilide]",solubility,[1],"soluble in water, alcohols, acetone"
same,"Inhibition of growth of phytopathogenic fungi colonies, % Rhyzoctonia violaceae test laboratory",[2],87%
same,"Inhibition of growth of phytopathogenic fungi colonies, % Verticillium albo--atrum test laboratory",[3],100%
same,"Inhibition of growth of phytopathogenic fungi colonies, % Fusarium oxysporum test laboratory",[4],98%
same,"Inhibition of growth of phytopathogenic fungi colonies, % Aspergillus fumigatis Tests laboratory",[5],92%
same,"Inhibition of growth of phytopathogenic fungi colonies, % Rhyzoctonia aderholdii test laboratory",[6],100%
same,"Inhibition of growth of phytopathogenic fungi colonies, % Botrytis cinereae test laboratory",[7],100%
same,"Inhibition of growth of phytopathogenic fungi colonies, % Diplodia zeae test laboratory",[8],100%
same,"Inhibition of growth of phytopathogenic fungi colonies, % Venturia inaequalis test laboratory",[9],100%
same,"Inhibition of growth of phytopathogenic fungi colonies, % Alternaria sobani test laboratory",[10],100%
same,"Inhibition of growth of phytopathogenic fungi colonies, % Fusatium monili-forme test laboratory",[11],74%
same,"Inhibition of growth of phytopathogenic fungi colonies, % Aspergillus niger test laboratory",[12],100%
same,"Inhibition of growth of phytopathogenic fungi colonies, % Rhoma betae test laboratory",[13],100%
same,"Inhibition of growth of phytopathogenic fungi colonies, % Penicillium cyclopium Tests laboratory",[14],80%
same,"Inhibition of growth of phytopathogenic fungi colonies, % Botrytis allii test laboratory",[15],100%
same,"Inhibition of growth of phytopathogenic fungi colonies, % Fusarium culmorum Tests laboratory",[16],100%
same,"Inhibition of growth of phytopathogenic fungi colonies, % Rhyzoctonia violaceae test field",[17],86%
same,"Inhibition of growth of phytopathogenic fungi colonies, % Verticillium albo--atrum test field",[18],100%
same,"Inhibition of growth of phytopathogenic fungi colonies, % Fusarium oxysporum test field",[19],97%
same,"Inhibition of growth of phytopathogenic fungi colonies, % Aspergillus fumigatis Tests field",[20],91%
same,"Inhibition of growth of phytopathogenic fungi colonies, % Rhyzoctonia aderholdii test field",[21],100%
same,"Inhibition of growth of phytopathogenic fungi colonies, % Botrytis cinereae test field",[22],100%
same,"Inhibition of growth of phytopathogenic fungi colonies, % Diplodia zeae test field",[23],100%
same,"Inhibition of growth of phytopathogenic fungi colonies, % Venturia inaequalis test field",[24],100%
same,"Inhibition of growth of phytopathogenic fungi colonies, % Alternaria sobani test field",[25],98%
same,"Inhibition of growth of phytopathogenic fungi colonies, % Fusatium monili-forme test field",[26],73%
same,"Inhibition of growth of phytopathogenic fungi colonies, % Aspergillus niger test field",[27],100%
same,"Inhibition of growth of phytopathogenic fungi colonies, % Rhoma betae test field",[28],99%
same,"Inhibition of growth of phytopathogenic fungi colonies, % Penicillium cyclopium Tests field",[29],79%
same,"Inhibition of growth of phytopathogenic fungi colonies, % Botrytis allii test field",[30],100%
same,"Inhibition of growth of phytopathogenic fungi colonies, % Fusarium culmorum Tests field",[31],99%
"O=C(NP(=O)(Nc1ccccc1Cl)Nc1ccccc1Cl)c1ccc(Br)cc1 [Example 17, para-bromobenzoylamidophosphoric acid di-ortho-chloroanilide]","Death of larvae, %, conditions field",[32],100%
same,solubility,[1],"soluble in water, alcohols, acetone"
same,phytotoxical effect on leaves of tomato and cucumber,[33],no phytotoxical effect
same,"Death of larvae, %, conditions experimental",[34],100%
"O=C(NP(=O)(Nc1ccc(Cl)cc1)Nc1ccc(Cl)cc1)c1ccc(Br)cc1 [Example 18, para-bromobenzoylamidophosphoric acid di-para-chloroanilide]","Death of larvae, %, conditions field",[32],92%
same,solubility,[1],"soluble in water, alcohols, acetone"
same,"Death of larvae, %, conditions experimental",[34],89%

# From patent EP0407583A1, “DERIVATIVES OF DICHLOR[…] ACYLAMIDO[…] AND INSECTICIDAL, FU[…] HEMATOCIDAL PREPARATIONS BASED ON THEM” (priority 1989, dated 1990)
